Results reported in ChEMBL document CHEMBL1139674 (Bioorg Med Chem Lett, 2006).

Key:
[1] = Cytotoxicity against human BC cells; assay type: cell-based
[2] = Cytotoxicity against human NCI-H187 cells; assay type: cell-based
[3] = test system: KB; test: Cytotoxicity against human KB cells at 20 ug/ml; assay type: cell-based
[4] = Cytotoxicity against human NCI-H187 cells at 20 ug/ml; assay type: cell-based
[5] = molecular target: T1, Tyrosinase (Agaricus bisporus, UniProt O42713); test: Inhibition of mushroom tyrosinase at 18.4 uM
T1 sequence (O42713 whole entry): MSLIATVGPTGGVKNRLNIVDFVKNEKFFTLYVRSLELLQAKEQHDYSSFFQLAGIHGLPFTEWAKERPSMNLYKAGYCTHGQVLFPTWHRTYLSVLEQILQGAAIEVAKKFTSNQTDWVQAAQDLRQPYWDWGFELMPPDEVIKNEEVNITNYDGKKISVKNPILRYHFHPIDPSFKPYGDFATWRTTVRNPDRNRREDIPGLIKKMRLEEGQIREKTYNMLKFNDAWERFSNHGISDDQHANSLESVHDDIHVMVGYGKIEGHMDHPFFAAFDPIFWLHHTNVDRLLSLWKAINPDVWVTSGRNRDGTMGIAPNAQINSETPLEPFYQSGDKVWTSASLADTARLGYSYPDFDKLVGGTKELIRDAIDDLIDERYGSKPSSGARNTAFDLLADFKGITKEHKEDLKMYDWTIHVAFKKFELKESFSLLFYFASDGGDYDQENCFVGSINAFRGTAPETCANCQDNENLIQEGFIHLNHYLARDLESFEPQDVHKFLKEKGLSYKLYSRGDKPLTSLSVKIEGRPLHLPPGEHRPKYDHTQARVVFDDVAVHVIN

[6] = molecular target: T1, Tyrosinase; test: Inhibition of mushroom tyrosinase at 9.2 uM
[7] = Cytotoxicity against human BC cells at 20 ug/ml; assay type: cell-based
[8] = test system: KB; test: Cytotoxicity against human KB cells; assay type: cell-based
[9] = molecular target: Tyrosinase (Agaricus bisporus); test: Inhibition of tyrosinase
[10] = molecular target: T1, Tyrosinase; test: Inhibition of mushroom tyrosinase at 2.4 uM
[11] = molecular target: T1, Tyrosinase; test: Inhibition of mushroom tyrosinase at 1.2 uM

SMILES	IC50 [1]	IC50 [2]	Activity [3]	Activity [4]	Activity [7]	IC50 [8]	IC50 [9]	further results
COc1cccc2c1C(=O)c1c(O)c3c(c(O)c1C2=O)C[C@@](O)(C(=O)CO)C[C@@H]3O[C@H]1C[C@H](N)[C@H](O)[C@H](C)O1 [DOXORUBICIN]	0.5 µM	0.1 µM	–	–	–	–	–	–
Oc1cc(O)cc(/C=C/c2ccc(O)cc2O)c1 [OXYRESVERATROL]	–	–	< 50%	< 50%	< 50%	–	–	Ki [5]: 28 µM; Ki [6]: 22 µM
Cc1c2ccncc2c(C)c2c1[nH]c1ccccc12 [ELLIPTECINE]	2.7 µM	1.9 µM	–	–	–	2.4 µM	–	–
COc1cc(/C=C\c2ccc(OC)cc2OC)cc(OC)c1	1 µM	0.3 µM	–	–	–	0.3 µM	–	–
COc1cc(O)cc(/C=C/c2ccc(OC)cc2O)c1	13.9 µM	33.5 µM	–	–	–	16.5 µM	> 100 µM	–
COc1cc(O)cc(/C=C/c2ccc(O)cc2OC)c1	10.8 µM	10.9 µM	–	–	–	5.5 µM	> 100 µM	–
Oc1cc(O)cc(CCc2ccc(O)cc2O)c1	–	–	< 50%	< 50%	< 50%	–	1.6 µM	Ki [10]: 5.6 µM; Ki [11]: 4.8 µM
COc1cc(/C=C/c2ccc(OC)cc2OC)cc(OC)c1	5.6 µM	8 µM	–	–	–	8.6 µM	–	–
COc1cc(O)ccc1/C=C/c1cc(O)cc(O)c1	66.6 µM	–	< 50%	< 50%	–	–	> 100 µM	–
COc1cc(CCc2ccc(OC)cc2OC)cc(OC)c1	–	–	< 50%	< 50%	< 50%	–	> 100 µM	–
